≈ marks a conversion by molar mass, not a printed value. Where two headings read alike, the source gives them in different places.
Tests used:
[1] = system: Candida spp. (C. parapsilosis, C. albicans, C. glabrata, C. tropicalis); experiment: Broth microdilution MIC, yeast (Example 11); assay type: cell-based
[2] = system: Candida spp.; experiment: Broth microdilution MIC, yeast (Example 13), group statement and QC; assay type: cell-based; conditions: C. parapsilosis ATCC 22019, comparators, single value
[3] = system: Candida krusei; experiment: Broth microdilution MIC, yeast (Example 13); assay type: cell-based; conditions: C. krusei ATCC 6258 (QC, Table 110), comparators, single value
[4] = system: Aspergillus spp.; experiment: Broth microdilution MIC/MEC, mold (Example 13); assay type: cell-based
[5] = system: E. coli ATCC 25922; experiment: Broth microdilution MIC, QC organism (Example 13, Table 110); assay type: cell-based, Escherichia coli
Text: (§1) MECs were only reported where observed.

[6] = system: S. aureus ATCC 29213; experiment: as above; assay type: cell-based, Staphylococcus aureus
Text: as §1

[7] = system: Candida spp. (C. parapsilosis, C. albicans, C. glabrata, C. tropicalis); conditions: C. parapsilosis MMX 2323 (ATCC 22019), cited from earlier work
[8] = system: Candida spp.; conditions: C. parapsilosis ATCC 22019, CLSI established QC range, cited from earlier work
[9] = system: Candida krusei; conditions: C. krusei ATCC 6258, CLSI established QC range, cited from earlier work
[10] = system: Aspergillus spp.; conditions: cited from earlier work
[11] = system: Enterococcus spp. (E. faecalis, E. faecium); experiment: Broth microdilution MIC (Example 11); assay type: cell-based; conditions: Enterococcus faecium, VRE, E. faecium MMX 485; VRE, vanA, LevR, CipR, EryR; read-out: MIC
[12] = system: Escherichia coli; conditions: E. coli MMX 102 (ATCC 25922); cited from earlier work
[13] = system: Pseudomonas aeruginosa; conditions: P. aeruginosa MMX 103 (ATCC 27853); cited from earlier work
[14] = system: Staphylococcus aureus (MRSA); conditions: S. aureus MMX 101 (ATCC 29213); cited from earlier work
[15] = system: beta-hemolytic streptococci (S. pyogenes, S. agalactiae); experiment: Broth microdilution MIC (Example 11); assay type: cell-based, Streptococcus pyogenes, Streptococcus agalactiae; conditions: read-out: MIC
[16] = system: S. pneumoniae (pneumococci); conditions: S. pneumoniae MMX 6837 (ATCC 49619); cited from earlier work
[17] = A. flavus ATCC 204304 (QC, Table 110)
[18] = A. fumigatus ATCC MYA-3626 (QC, Table 110)

C[C@@H]1[C@H](O)[C@@H](C)/C=C/C=C/C=C/C=C/C=C/C=C/C=C/[C@H](O[C@@H]2O[C@H](C)[C@@H](O)[C@H](N)[C@@H]2O)C[C@@H]2O[C@](O)(C[C@@H](O)C[C@@H](O)[C@H](O)CC[C@@H](O)C[C@@H](O)CC(=O)O[C@H]1C)C[C@H](O)[C@H]2C(=O)O [Amphotericin B]
MIC ([1]; C. albicans MMX 7039, Sensitive, 24 hr): 0.5, 0.5 μg/mL | MIC ([1]; C. albicans MMX 7039, Sensitive, 48 hr): 0.5, 0.5 μg/mL | MIC ([1]; C. albicans MMX 7055, Sensitive, 24 hr): 0.25 µg/mL (≈ 0.271 µM) | MIC ([1]; C. albicans MMX 7055, Sensitive, 48 hr): 0.5 µg/mL (≈ 0.541 µM) | MIC ([1]; C. glabrata MMX 7086, FLU^R, 24 hr): 0.5 µg/mL (≈ 0.541 µM) | MIC ([1]; C. glabrata MMX 7086, FLU^R, 48 hr): 1 µg/mL (≈ 1.08 µM) | MIC ([1]; C. glabrata MMX 7318, FLU^R, 24 hr): 0.5 µg/mL (≈ 0.541 µM) | MIC ([1]; C. glabrata MMX 7318, FLU^R, 48 hr): 1 µg/mL (≈ 1.08 µM) | MIC ([1]; C. parapsilosis MMX 2323 (ATCC 22019), QC, 24 hr): 0.5 µg/mL (≈ 0.541 µM) | MIC ([1]; C. parapsilosis MMX 2323 (ATCC 22019), QC, 48 hr): 1 µg/mL (≈ 1.08 µM) | MIC ([1]; C. parapsilosis MMX 7370, FLU^R, 24 hr): 0.5 µg/mL (≈ 0.541 µM) | MIC ([1]; C. parapsilosis MMX 7370, FLU^R, 48 hr): 1 µg/mL (≈ 1.08 µM) | MIC ([1]; C. parapsilosis MMX 7555, FLU^R, 24 hr): 0.5, 0.5 μg/mL | MIC ([1]; C. parapsilosis MMX 7555, FLU^R, 48 hr): 0.5, 0.5 μg/mL | MIC ([1]; C. tropicalis MMX 7247, FLU^R, 24 hr): 0.5 µg/mL (≈ 0.541 µM) | MIC ([1]; C. tropicalis MMX 7247, FLU^R, 48 hr): 1 µg/mL (≈ 1.08 µM) | MIC ([1]; C. tropicalis MMX 7248, FLU^R, 24 hr): 0.5 µg/mL (≈ 0.541 µM) | MIC ([1]; C. tropicalis MMX 7248, FLU^R, 48 hr): 1 µg/mL (≈ 1.08 µM) | MIC ([1]; C. tropicalis MMX 7360, FLU^R, 24 hr): 0.5, 0.5 μg/mL | MIC ([1]; C. tropicalis MMX 7360, FLU^R, 48 hr): 0.5, 0.5 μg/mL | MIC 24 hr ([2]; 24 hr): 0.5 µg/mL (≈ 0.541 µM) | MIC 48 hr ([2]; 48 hr): 0.5 µg/mL (≈ 0.541 µM) | MIC 24 hr ([3]; 24 hr): 0.5 µg/mL (≈ 0.541 µM) | MIC 48 hr ([3]; 48 hr): 0.5 µg/mL (≈ 0.541 µM) | MIC 24 hr [4, 17]: 0.5 µg/mL (≈ 0.541 µM) | MIC 48 hr [4, 17]: 1 µg/mL (≈ 1.08 µM) | MIC 24 hr [4, 18]: 0.5 µg/mL (≈ 0.541 µM) | MIC 48 hr [4, 18]: 1 µg/mL (≈ 1.08 µM) | MIC 24 hr [5]: > 64 µg/mL | MIC 24 hr [6]: > 64 µg/mL | MIC, CLSI QC range ([7]; 24 hr): 0.25 to 2 µg/mL | MIC, CLSI QC range ([7]; 48 hr): 0.5 to 4 µg/mL | QC Range 24 hr ([8]; 24 hr): 0.25-2 | QC Range 48 hr ([8]; 48 hr): 0.5-4 | QC Range 24 hr ([9]; 24 hr): 0.5-2 | QC Range 48 hr ([9]; 48 hr): 1-4 | QC Range 48 hr ([10]; A. flavus ATCC 204304, CLSI established QC range): 0.5-4 | QC Range 48 hr ([10]; A. fumigatus ATCC MYA-3626, CLSI established QC range): 0.5-4

CC(C)(O/N=C(\C(=O)N[C@@H]1C(=O)N2C(C(=O)[O-])=C(C[n+]3ccccc3)CS[C@H]12)c1csc(N)n1)C(=O)O [Ceftazidime]
MIC [11]: > 32 µg/mL | CLSI QC range (MIC) [12]: (0.06-0.5) μg/mL | CLSI QC range (MIC) [13]: (1-4) | CLSI QC range (MIC) [14]: (4-16) μg/mL

CC[C@H]1OC(=O)[C@H](C)[C@@H](O[C@H]2C[C@@](C)(OC)[C@@H](O)[C@H](C)O2)[C@H](C)[C@@H](O[C@@H]2O[C@H](C)C[C@H](N(C)C)[C@H]2O)[C@](C)(O)C[C@@H](C)C(=O)[C@H](C)[C@@H](O)[C@]1(C)O [Erythromycin]
MIC [11]: > 64 µg/mL | MIC ([15]; S. agalactiae MMX 3741, ERY^R CC^R): 8 µg/mL (≈ 10.9 µM) | MIC ([15]; S. agalactiae MMX 3743, ERY^R CC^R): > 8 µg/mL | MIC ([15]; S. agalactiae MMX 4077, ERY^R CC^R): > 8 µg/mL | MIC ([15]; S. agalactiae MMX 4079, ERY^R CC^R Pen^R MEM^R): > 8 µg/mL | MIC ([15]; S. agalactiae MMX 4086, ERY^R CC^R): > 8 µg/mL | CLSI QC range (MIC) [14]: (0.25-1) μg/mL | MIC, CLSI QC range [16]: (0.03-0.12) μg/mL

Reference: patent US12186283B2, “Bismuth-thiol compositions and methods of use” (Microbion Corporation, priority 2018, dated 2025)
